The IC50 is the point on the concentration scale where inhibition reaches its midpoint. Read a low IC50 as higher potency.

This passage reports IC50 results from ChEMBL document CHEMBL5325427.

This assay deals with SARS-CoV-2. Description: Antiviral activity against SARS CoV-2 DG614G infected human Vero cells overexpressing ACE2 compound preincubated with cells for 1 hr followed by viral infection and measured after 24 hrs by flow cytometry analysis. Conditions: Severe acute respiratory syndrome coronavirus 2, DG614G. It is filed as functional, organism-based. In general terms: Flow cytometry measures light scatter and fluorescence of single cells or particles in a stream.

≈ marks a conversion by molar mass, not a printed value.

`COc1ccc2[nH]c3c(c2c1)C[C@]1(OC)CC[C@H]2c4[nH]c5ccccc5c4CCN2[C@@H]1C3` displayed an IC50 of 0.06 µg/mL (≈ 0.14 µM).
